Source: ChEMBL document CHEMBL1681727, “X-ray and molecular modelling in fragment-based design of three small quinoline scaffolds for HIV integrase inhibitors” (Bioorg Med Chem, 2011)

experiment: Inhibition of Human immunodeficiency virus integrase

Point of comparison: `CC(=O)NC1=CC(=O)c2ccc(C)nc2C1=O`, IC50 77 µM. Against it:
- Cc1ccc2c(O)c(C(=O)O)ccc2n1 — 1.6-fold lower, 47 µM
- Cc1ccc2ccc(C(=O)O)c(O)c2n1 — higher, > 100 µM
